# Experimental data as given in ChEMBL document CHEMBL1201862, “PubChem BioAssay data set” (2004).
# The source made the active and inactive calls.
# Legend:
# [1] = biological target: Epstein-Barr nuclear antigen 1 (Epstein-Barr virus (strain B95-8) (HHV-4) (Human herpesvirus 4), UniProt P03211); assay: inhibition of EBV nuclear antigen 1 DNA binding – biochemical, fluorescence polarization, 1536-well, dose response (AID 2381); parameters: species or system human gammaherpesvirus 4;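 note: fluorescence polarization of a Cy5 DNA probe bound by EBNA-1 protein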
# [2] = biological target: Lytic switch protein BZLF1 (Epstein-Barr virus (strain B95-8) (HHV-4) (Human herpesvirus 4), UniProt P03206); assay: inhibition of BZLF1 ZTA DNA binding – biochemical, fluorescence polarization, Epstein-Barr virus, 1536-well, counter-screen for EBNA-1 inhibitor project, dose response (AID 2377); parameters: species or system human gammaherpesvirus 4;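 note: fluorescence polarization of Cy5-labelled ZRE DNA probe bound by purified Zta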
# [3] = biological target: T1, Peroxisome proliferator-activated receptor gamma/Nuclear receptor coactivator 1 (Homo sapiens, UniProt P37231); assay: (§1) TR-FRET dose response biochemical High Throughput Screening assay for agonists of the steroid receptor coactivator 1 (SRC-1) recruitment by the peroxisome proliferator-activated receptor gamma (PPAR gamma): non-selective agonists. [Related pubchem assays (depositor defined):AID1300, AID1808, AID504735, AID631]; assay type: protein assay
# [4] = biological target: T2, Peroxisome proliferator-activated receptor gamma/Nuclear receptor coactivator 3 (Homo sapiens, UniProt P37231); assay: as §1, with “3 (SRC-3)” for “1 (SRC-1)”, “assays: 1301 (Confirmation screen.), 1048 (Primary screen.)]” for “assays (depositor defined):AID1300, AID1808, AID504735, AID631]”; assay type: functional
# [5] = biological target: T3, Peroxisome proliferator-activated receptor gamma/Nuclear receptor coactivator 2 (Homo sapiens, UniProt P37231); assay: TR-FRET dose response biochemical High Throughput Screening assay for agonists of the steroid receptor coactivator 2 (SRC-2) recruitment by the peroxisome proliferator-activated receptor gamma (PPAR gamma): non-selective agonists. [Related pubchem assays: 1297, 1032 ]; assay type: functional
# [6] = biological target: Ephrin type-A receptor 4 (Mus musculus, UniProt Q03137); assay: EphA4 ligand-binding antagonists – biochemical, colorimetric, mouse EphA4, primary screen (AID 689); assay type: functional
# [7] = biological target: Nonstructural protein 1 (Influenza A virus, UniProt Q194T2); assay type: functional, Influenza A virus (A/California/07/2009(H1N1))
# [8] = biological target: 26S proteasome non-ATPase regulatory subunit 14 (Homo sapiens, UniProt O00487); assay: inhibition of proteasome subunit RPN11 – biochemical, fluorescence polarization, uHTS hits, confirmation (AID 602368); assay type: functional
# [9] = biological target: 72 kDa type IV collagenase (Homo sapiens, UniProt P08253); assay: Dose Response validation of uHTS RPN11 inhibitor hits using a MMP-2 Fluorescence assay.; assay type: functional
# [10] = biological target: Prothrombin (Bos taurus, UniProt P00735); assay: thrombin protease inhibitors – biochemical, fluorescence polarization, uHTS hits, dose response (AID 602369); assay type: functional
# [11] = biological target: T4, E3 ubiquitin-protein ligase XIAP (Homo sapiens, UniProt P98170); assay: Counter Screen using XIAP-Bir3 for Chemical Antagonists of Bir1/2 domains of IAP-family anti-apoptotic proteins. [Related pubchem assays (depositor defined):AID1018, AID1449, AID1514, AID1638, AID1749, AID1750, AID488957, AID488963]
# [12] = biological target: T4, E3 ubiquitin-protein ligase XIAP; assay: small molecules displacing peptide from XIAP – biochemical, IAP family, fluorescence polarization (AID 1018); assay type: functional
# [13] = biological target: T5, Corticotropin-releasing factor receptor 2/Corticotropin-releasing factor-binding protein (Homo sapiens, UniProt P24387+Q13324); assay: Dose Response confirmation of uHTS hits for small molecule antagonists of the CRF-binding protein and CRF-R2 receptor complex.; assay type: functional; settings: read-out: IC50_Mean
# T5 sequence (Q13324 whole entry): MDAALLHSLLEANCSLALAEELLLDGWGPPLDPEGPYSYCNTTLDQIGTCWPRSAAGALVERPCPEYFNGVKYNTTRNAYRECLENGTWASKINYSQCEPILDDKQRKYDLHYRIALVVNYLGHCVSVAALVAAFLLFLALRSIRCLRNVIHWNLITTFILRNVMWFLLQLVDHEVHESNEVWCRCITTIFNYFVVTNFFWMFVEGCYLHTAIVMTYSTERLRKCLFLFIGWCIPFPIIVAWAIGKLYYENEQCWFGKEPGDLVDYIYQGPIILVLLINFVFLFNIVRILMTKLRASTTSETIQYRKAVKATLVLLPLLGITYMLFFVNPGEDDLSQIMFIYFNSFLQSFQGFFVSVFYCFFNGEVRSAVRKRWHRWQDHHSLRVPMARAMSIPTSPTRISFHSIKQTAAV
# T5 sequence (P24387 whole entry): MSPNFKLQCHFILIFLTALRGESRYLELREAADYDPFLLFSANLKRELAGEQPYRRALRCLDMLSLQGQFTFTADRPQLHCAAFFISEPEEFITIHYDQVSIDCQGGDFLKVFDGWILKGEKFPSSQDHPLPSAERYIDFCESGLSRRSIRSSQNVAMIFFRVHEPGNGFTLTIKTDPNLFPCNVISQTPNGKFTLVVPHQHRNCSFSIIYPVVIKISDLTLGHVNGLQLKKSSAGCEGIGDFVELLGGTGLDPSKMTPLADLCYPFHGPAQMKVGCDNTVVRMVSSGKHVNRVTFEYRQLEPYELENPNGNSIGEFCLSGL
# [14] = biological target: T5, Corticotropin-releasing factor receptor 2/Corticotropin-releasing factor-binding protein; assay: activators of CRF receptor 2 with binding protein – uHTS hits, confirmation (AID 602473); assay type: functional; settings: read-out: EC50_Mean
# [15] = biological target: T6, Estrogen receptor (Homo sapiens, UniProt P03372);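 note: potency for inhibiting coactivator peptide recruitment to the receptor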
# T6 sequence (P03372 whole entry): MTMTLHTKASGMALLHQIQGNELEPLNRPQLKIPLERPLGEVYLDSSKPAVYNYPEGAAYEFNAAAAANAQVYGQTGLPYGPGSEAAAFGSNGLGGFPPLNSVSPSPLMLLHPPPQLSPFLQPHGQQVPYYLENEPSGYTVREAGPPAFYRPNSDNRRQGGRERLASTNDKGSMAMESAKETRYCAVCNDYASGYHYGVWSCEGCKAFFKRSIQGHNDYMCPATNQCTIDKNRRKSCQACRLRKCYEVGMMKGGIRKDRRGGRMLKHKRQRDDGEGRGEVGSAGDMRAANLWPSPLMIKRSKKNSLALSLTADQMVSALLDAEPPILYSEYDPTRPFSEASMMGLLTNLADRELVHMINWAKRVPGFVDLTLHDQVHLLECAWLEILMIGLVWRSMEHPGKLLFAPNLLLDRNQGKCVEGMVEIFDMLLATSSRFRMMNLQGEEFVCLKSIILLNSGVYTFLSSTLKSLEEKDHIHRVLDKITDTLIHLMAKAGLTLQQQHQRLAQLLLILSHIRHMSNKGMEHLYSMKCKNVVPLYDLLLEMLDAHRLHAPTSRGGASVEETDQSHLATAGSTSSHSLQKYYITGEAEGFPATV
# [16] = tested on: BJ; assay: BJ-TERT fibroblast viability loss – cell-based, RAS-independent, luminescence, dose response (AID 1933); assay type: functional; settings: Homo sapiens
# [17] = biological target: Luciferin 4-monooxygenase (Photinus pyralis, UniProt P08659); assay: Counter Screen for Luciferase-based Assay Positives. [Related pubchem assays: 620, 618, 411 ]
# [18] = tested on: BJ; assay: cells; assay type: functional, cell-based; settings: Homo sapiens
# [19] = tested on: HT-1080; assay: HT1080 cell viability loss – fluorescence readout (AID 620); assay type: functional, cell-based; settings: Homo sapiens
# [20] = tested on: BJ; assay: BJ-TERT-LT-ST fibroblast viability loss – cell-based, RAS-independent, luminescence, dose response (AID 1935); assay type: functional; settings: Homo sapiens;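 note: BJ fibroblasts immortalized with TERT plus LT and ST oncogenes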
# [21] = DRD fibroblast viability loss – cell-based, non-viral oncogenic, luminescence, dose response (AID 1934); assay type: functional; settings: Homo sapiens
# [22] = tested on: HEK293; assay: EBV LMP1 TES2 canonical NF-kB signalling blockers – cell-based, HEK293, luciferase, cherry-pick, dose response (AID 588343); assay type: functional; settings: Homo sapiens
# [23] = cells; assay type: functional, cell-based
# [24] = biological target: T7, Nuclear receptor subfamily 0 group B member 1 (Homo sapiens, UniProt P51843); assay type: functional, cell-based;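 note: HEK293T cells transfected with SF-1 and DAX-1 plus StAR promoter luciferase reporter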
# T7 sequence (P51843 whole entry): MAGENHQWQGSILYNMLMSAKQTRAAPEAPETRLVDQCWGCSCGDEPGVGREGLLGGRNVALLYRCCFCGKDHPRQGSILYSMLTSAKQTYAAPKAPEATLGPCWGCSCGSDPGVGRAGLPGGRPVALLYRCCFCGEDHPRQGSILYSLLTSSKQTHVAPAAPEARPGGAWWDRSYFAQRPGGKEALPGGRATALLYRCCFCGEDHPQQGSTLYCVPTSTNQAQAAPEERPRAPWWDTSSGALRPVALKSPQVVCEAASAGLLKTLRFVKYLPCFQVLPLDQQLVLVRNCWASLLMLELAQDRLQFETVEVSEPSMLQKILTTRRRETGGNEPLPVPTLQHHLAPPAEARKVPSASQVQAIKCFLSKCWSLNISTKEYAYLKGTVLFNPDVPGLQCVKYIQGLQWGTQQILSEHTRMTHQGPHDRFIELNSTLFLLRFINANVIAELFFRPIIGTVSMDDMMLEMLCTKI
# [25] = biological target: T8, Sphingosine 1-phosphate receptor 4 (Homo sapiens, UniProt O95977); assay: Fluorescence dose response cell-based high throughput screening assay for antagonists of the Sphingosine 1-Phosphate Receptor 4 (S1P4). [Related pubchem assays: 1524 (Confirmation in triplicates.), 1510 (Primary screen.)]; assay type: functional
# T8 sequence (O95977 whole entry): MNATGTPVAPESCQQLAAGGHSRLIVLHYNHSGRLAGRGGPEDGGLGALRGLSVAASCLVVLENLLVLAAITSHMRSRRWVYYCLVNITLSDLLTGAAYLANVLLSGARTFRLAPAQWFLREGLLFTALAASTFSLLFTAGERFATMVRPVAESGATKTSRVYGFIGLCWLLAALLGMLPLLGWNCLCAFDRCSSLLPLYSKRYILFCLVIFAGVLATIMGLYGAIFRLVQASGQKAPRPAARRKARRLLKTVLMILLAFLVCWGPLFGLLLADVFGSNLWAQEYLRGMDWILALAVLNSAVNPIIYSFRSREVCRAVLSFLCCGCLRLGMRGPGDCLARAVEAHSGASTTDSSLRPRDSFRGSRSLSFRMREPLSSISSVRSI
# [26] = biological target: Sphingosine 1-phosphate receptor 1 (Homo sapiens, UniProt P21453); assay type: functional;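 note: Tango beta-arrestin reporter U2OS cells stimulated with S1P near its EC80; inhibitor potency meaning antagonism of receptor activation by the natural agonist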
# [27] = tested on: Vero; assay: cells; assay type: functional, cell-based; settings: Chlorocebus sabaeus
# [28] = tested on: Vero; assay: cells; assay type: functional; settings: Chlorocebus sabaeus
# [29] = biological target: T3, Peroxisome proliferator-activated receptor gamma/Nuclear receptor coactivator 2; assay type: functional
# [30] = biological target: T1, Peroxisome proliferator-activated receptor gamma/Nuclear receptor coactivator 1; assay type: functional
# [31] = biological target: T2, Peroxisome proliferator-activated receptor gamma/Nuclear receptor coactivator 3; assay type: functional
# T4 sequence (P98170 whole entry): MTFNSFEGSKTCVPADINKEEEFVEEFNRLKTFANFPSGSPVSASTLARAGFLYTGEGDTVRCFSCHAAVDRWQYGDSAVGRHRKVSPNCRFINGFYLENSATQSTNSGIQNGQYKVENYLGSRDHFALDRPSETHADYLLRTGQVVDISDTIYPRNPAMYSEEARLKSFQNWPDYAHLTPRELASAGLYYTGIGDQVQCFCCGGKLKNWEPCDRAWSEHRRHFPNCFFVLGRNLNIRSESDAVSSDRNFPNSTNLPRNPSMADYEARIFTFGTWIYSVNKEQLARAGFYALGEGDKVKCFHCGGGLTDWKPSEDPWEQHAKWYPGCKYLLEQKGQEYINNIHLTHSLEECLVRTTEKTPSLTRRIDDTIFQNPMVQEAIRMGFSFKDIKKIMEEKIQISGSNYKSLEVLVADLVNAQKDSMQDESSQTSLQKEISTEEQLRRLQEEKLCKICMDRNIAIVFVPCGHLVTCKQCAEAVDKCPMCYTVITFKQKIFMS
# T1 sequence (P37231 whole entry): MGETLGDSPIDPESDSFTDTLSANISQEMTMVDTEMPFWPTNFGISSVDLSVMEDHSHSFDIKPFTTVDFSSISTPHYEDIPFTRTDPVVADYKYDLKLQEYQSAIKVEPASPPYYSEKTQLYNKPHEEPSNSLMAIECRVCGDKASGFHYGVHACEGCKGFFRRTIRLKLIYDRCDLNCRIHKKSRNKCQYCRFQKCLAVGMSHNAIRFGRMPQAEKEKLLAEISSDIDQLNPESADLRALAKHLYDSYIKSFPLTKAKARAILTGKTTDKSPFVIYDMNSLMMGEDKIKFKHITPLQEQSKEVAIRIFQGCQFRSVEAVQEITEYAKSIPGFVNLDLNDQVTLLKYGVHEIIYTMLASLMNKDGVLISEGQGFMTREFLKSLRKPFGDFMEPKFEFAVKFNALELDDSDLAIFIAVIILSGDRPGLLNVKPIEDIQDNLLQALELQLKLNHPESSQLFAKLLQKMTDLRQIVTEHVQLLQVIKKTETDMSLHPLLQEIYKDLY
# T1 sequence (Q15788 whole entry, further chain): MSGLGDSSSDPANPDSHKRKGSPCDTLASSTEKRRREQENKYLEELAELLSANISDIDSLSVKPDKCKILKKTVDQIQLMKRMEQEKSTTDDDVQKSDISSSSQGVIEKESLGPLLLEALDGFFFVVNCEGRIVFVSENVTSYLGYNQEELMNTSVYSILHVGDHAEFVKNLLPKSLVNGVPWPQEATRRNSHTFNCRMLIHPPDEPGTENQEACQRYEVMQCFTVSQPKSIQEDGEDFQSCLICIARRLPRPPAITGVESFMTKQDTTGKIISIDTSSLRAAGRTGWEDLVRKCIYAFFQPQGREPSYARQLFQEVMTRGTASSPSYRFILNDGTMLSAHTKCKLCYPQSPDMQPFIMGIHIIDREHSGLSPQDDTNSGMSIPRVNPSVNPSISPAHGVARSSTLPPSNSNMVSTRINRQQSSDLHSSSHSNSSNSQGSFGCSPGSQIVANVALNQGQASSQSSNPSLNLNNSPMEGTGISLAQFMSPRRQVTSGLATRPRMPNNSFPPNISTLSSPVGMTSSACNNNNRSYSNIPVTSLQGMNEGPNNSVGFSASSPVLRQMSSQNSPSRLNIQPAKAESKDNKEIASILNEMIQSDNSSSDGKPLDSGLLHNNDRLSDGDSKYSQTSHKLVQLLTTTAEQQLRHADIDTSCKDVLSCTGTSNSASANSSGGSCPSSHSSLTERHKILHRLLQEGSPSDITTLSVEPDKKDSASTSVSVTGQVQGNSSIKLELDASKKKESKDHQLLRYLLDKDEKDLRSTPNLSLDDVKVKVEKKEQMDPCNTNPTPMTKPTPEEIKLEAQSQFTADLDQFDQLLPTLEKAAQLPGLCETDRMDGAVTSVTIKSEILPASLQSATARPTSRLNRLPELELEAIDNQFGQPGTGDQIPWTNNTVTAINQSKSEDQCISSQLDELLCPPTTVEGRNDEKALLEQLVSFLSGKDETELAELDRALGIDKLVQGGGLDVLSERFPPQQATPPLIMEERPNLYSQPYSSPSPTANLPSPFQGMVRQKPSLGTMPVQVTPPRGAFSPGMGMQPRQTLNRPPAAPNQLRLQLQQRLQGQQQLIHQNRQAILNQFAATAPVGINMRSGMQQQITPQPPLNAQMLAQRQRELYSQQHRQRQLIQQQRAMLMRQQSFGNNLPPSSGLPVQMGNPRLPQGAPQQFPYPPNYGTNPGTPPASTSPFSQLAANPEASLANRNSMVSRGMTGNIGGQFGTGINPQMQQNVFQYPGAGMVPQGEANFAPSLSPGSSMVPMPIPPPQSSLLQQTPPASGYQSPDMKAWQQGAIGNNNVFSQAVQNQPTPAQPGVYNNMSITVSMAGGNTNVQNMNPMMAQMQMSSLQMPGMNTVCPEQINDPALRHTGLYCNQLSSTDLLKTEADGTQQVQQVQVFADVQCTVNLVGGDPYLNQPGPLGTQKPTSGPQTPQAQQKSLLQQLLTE
# T3 sequence (P37231 whole entry): as the sequence (P37231 whole entry) above
# T3 sequence (Q15596 whole entry, further chain): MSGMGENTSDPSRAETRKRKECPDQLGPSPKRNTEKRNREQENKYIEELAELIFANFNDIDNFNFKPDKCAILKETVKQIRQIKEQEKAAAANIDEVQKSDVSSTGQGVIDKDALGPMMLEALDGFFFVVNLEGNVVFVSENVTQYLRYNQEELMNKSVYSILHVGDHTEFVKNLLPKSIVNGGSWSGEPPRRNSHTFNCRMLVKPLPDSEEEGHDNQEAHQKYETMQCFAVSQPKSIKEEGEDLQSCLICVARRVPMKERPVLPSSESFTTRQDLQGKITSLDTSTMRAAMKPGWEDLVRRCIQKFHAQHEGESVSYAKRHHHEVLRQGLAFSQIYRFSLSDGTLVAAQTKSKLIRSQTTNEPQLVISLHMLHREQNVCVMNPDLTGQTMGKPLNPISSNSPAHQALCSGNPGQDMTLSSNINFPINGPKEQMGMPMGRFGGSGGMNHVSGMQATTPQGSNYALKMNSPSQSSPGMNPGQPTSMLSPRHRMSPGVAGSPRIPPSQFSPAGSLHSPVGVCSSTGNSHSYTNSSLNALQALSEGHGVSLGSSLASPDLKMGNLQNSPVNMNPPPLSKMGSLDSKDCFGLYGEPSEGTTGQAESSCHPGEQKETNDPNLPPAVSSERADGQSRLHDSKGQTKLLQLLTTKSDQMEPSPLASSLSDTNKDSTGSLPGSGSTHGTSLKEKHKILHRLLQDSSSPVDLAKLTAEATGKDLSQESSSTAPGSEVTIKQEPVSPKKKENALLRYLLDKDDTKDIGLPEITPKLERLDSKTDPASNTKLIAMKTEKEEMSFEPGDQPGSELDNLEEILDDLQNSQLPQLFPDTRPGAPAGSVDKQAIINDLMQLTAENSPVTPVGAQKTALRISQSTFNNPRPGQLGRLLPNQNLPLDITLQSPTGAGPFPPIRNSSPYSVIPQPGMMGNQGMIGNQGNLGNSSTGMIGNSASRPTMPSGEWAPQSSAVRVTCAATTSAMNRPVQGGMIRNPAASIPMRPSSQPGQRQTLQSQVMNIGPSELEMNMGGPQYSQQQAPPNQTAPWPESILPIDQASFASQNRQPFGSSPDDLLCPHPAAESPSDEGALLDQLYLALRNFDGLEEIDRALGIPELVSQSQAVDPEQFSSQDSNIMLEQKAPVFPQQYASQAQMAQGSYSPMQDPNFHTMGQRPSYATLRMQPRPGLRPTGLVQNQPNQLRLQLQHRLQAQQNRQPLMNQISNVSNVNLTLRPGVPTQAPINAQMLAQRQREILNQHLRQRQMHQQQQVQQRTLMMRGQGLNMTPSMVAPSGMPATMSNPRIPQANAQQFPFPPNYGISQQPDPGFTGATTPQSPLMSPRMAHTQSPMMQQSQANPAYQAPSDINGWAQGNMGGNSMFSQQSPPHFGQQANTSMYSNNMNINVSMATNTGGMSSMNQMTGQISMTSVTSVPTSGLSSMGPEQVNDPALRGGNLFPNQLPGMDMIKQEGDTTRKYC
# Nonstructural protein 1, sequence (Q194T2 whole entry): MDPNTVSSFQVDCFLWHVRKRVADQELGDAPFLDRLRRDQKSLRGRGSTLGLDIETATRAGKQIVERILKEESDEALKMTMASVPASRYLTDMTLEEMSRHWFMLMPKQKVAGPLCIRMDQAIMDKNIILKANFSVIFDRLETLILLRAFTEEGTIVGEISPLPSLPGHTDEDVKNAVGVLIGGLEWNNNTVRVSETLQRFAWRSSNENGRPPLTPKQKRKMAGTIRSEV
# Lytic switch protein BZLF1, sequence (P03206 whole entry): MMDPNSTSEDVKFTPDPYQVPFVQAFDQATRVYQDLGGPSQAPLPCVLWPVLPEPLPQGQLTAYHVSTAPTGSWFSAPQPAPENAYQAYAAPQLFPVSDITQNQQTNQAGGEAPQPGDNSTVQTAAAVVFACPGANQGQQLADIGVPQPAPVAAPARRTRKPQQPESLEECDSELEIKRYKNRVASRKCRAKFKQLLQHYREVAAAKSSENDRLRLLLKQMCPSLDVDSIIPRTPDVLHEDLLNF
structure (smiles),measurement,setting,value
COc1ccc(C(=O)CSc2nnc(NC(=O)C3CC(=O)N(c4cccc(OC)c4)C3)s2)cc1 (stereo unspecified),IC50,[1],5.9 µM (active)
same,IC50,[2],> 111 µM (not active)
CN(C)c1ccc(/C=C/C=C2/SC(=S)N(c3ccccc3)C2=O)cc1,EC50,[3],> 79.4 µM (inactive)
same,EC50,[4],> 79.4 µM (not active)
same,EC50,[5],> 79.4 µM (not active)
same,IC50,[6],0.6 µM (active)
same,IC50,[7],5.48 µM (active)
same,IC50,[8],0.703 µM (active)
same,IC50,[9],> 100 µM (inactive)
same,IC50,[10],0.529 µM (active)
COc1ccc(Cl)cc1NC(=O)CNc1ccccc1F,IC50,[11],> 100 µM (inactive)
same,IC50,[12],> 100 µM (not active)
same,IC50,[13],> 47.1 µM (inactive)
same,EC50,[14],> 53 µM (inactive)
Cc1nnc(NC(=O)CSc2nc3c(c(=O)n2CCc2ccccc2)SC(C)C3)s1 (stereo unspecified),IC50,[15],17.5 µM (active)
c1ccc(C2=NN=C(NC3CC3)SC2)cc1,EC50,[16],13.1 µM (active)
same,EC50,[17],1.24 µM (active)
same,EC50,[18],12.4 µM (inconclusive)
same,EC50,[19],> 50 µM (not active)
same,EC50,[20],> 150 µM (inconclusive)
same,EC50,[21],10.5 µM (active)
same,AC50,[22],2.58 µM (active)
same,IC50,[23],> 67.6 µM (inactive)
same,IC50,[24],> 67.6 µM (inactive)
O=C(/C=C/c1ccccc1)CC(O)(c1ccccc1)C(F)(F)F (stereo unspecified),IC50,[25],1.97 µM (active)
same,IC50,[26],25.9 µM (not active)
same,IC50,[27],> 25 µM (active)
same,CC50,[28],13.6 µM (active)
Cc1cc(C(=O)N/N=C/c2c[nH]nc2-c2ccccc2)cs1,EC50,[29],> 79.4 µM (not active)
same,EC50,[30],> 79.4 µM (not active)
same,EC50,[31],> 79.4 µM (not active)
